According to ChEMBL document CHEMBL4020784, “Syntheses of prodrug-type phosphotriester oligonucleotides responsive to intracellular reducing environment for improvement of cell membrane permeability and nuclease resistance” (Bioorg Med Chem Lett, 2017):

Columns and labels:
[1] = Metabolic stability in 10% fetal bovine serum assessed as compound remaining at 37 degC by RP-HPLC method; format: ADME, cell-free, Bos taurus; details: cattle
[2] = Chemical stability in CD3CN up to 7 days by 31P NMR method; format: physicochemical; details: read-out: Stability

| half-life [1] | SMILES | remaining at 168 h [2] |
| --- | --- | --- |
| < 1.5 h | Cc1cn([C@H]2C[C@H](OP(=O)(O)OC[C@H]3O[C@@H](n4cc(C)c(=O)[nH]c4=O)C[C@@H]3OP(=O)(O)OC[C@H]3O[C@@H](n4cc(C)c(=O)[nH]c4=O)C[C@@H]3OP(=O)(O)OC[C@H]3O[C@@H](n4cc(C)c(=O)[nH]c4=O)C[C@@H]3OP(=O)(O)OC[C@H]3O[C@@H](n4cc(C)c(=O)[nH]c4=O)C[C@@H]3OP(=O)(O)OC[C@H]3O[C@@H](n4cc(C)c(=O)[nH]c4=O)C[C@@H]3OP(=O)(O)OC[C@H]3O[C@@H](n4cc(C)c(=O)[nH]c4=O)C[C@@H]3OP(=O)(O)OC[C@H]3O[C@@H](n4cc(C)c(=O)[nH]c4=O)C[C@@H]3OP(=O)(O)OC[C@H]3O[C@@H](n4cc(C)c(=O)[nH]c4=O)C[C@@H]3OP(=O)(O)OC[C@H]3O[C@@H](n4cc(C)c(=O)[nH]c4=O)C[C@@H]3O)[C@@H](CO)O2)c(=O)[nH]c1=O | – |
| > 23.3 h | Cc1cn([C@H]2C[C@H](OP(=O)(O)OC[C@H]3O[C@@H](n4cc(C)c(=O)[nH]c4=O)C[C@@H]3OP(=O)(O)OC[C@H]3O[C@@H](n4cc(C)c(=O)[nH]c4=O)C[C@@H]3OP(=O)(O)OC[C@H]3O[C@@H](n4cc(C)c(=O)[nH]c4=O)C[C@@H]3OP(=O)(O)OC[C@H]3O[C@@H](n4cc(C)c(=O)[nH]c4=O)C[C@@H]3OP(=O)(O)OC[C@H]3O[C@@H](n4cc(C)c(=O)[nH]c4=O)C[C@@H]3OP(=O)(O)OC[C@H]3O[C@@H](n4cc(C)c(=O)[nH]c4=O)C[C@@H]3OP(=O)(O)OC[C@H]3O[C@@H](n4cc(C)c(=O)[nH]c4=O)C[C@@H]3OP(=O)(O)OC[C@H]3O[C@@H](n4cc(C)c(=O)[nH]c4=O)C[C@@H]3OP(=O)(OC[C@H]3O[C@@H](n4cc(C)c(=O)[nH]c4=O)C[C@@H]3O)O[C@@H]3CSSC[C@H]3OCc3ccccc3)[C@@H](CO)O2)c(=O)[nH]c1=O (stereo partly drawn) | – |
| – | COc1ccc(C(OC[C@H]2O[C@@H](n3cc(C)c(=O)[nH]c3=O)C[C@@H]2OP(OC2CSSCC2OCc2ccccc2)N(C(C)C)C(C)C)(c2ccccc2)c2ccc(OC)cc2)cc1 (stereo partly drawn) | 95% |
